# Measurements as given in US9771341B2, “Piperazine carbamates and methods of making and using same” (Abide Therapeutics, Inc., priority 2015, dated 2017).
# Like-named read-outs stand apart in the source and are kept apart here.
# Key:
# Assay type in all cases: biochemical
# MAGL = target: T1, MAGL (Mus musculus, UniProt O35678); assay: In vitro competitive activity-based protein profiling (mouse), MAGL; conditions: for inhibition at 1 µM: read-out: % Inhibition at 1 μM MAGL; for IC50: mouse brain membrane fraction or cell lysates, 30 min preincubation at 37° C, FP-Rh probe
# T1 construct: Proteomes (mouse brain membrane fraction or cell lysates); from tissue; host or cells: mouse brain membrane fraction (or unspecified cell lysates)
# T1 sequence (O35678 1-303): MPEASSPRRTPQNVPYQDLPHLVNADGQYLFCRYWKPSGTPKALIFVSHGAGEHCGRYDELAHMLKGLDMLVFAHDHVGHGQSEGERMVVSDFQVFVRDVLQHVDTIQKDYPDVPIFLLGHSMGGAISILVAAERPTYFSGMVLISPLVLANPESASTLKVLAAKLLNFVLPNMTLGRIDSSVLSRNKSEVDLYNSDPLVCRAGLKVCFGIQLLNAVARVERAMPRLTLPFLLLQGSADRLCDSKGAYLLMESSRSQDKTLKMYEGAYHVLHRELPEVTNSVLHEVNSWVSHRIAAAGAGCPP
# Procedure: (§1) In Vitro Competitive Activity-Based Protein Profiling (Mouse).
# (§2) Proteomes (mouse brain membrane fraction or cell lysates) (50 μL, 1.0 mg/mL total protein concentration) were preincubated with varying concentrations of inhibitors at 37° C. After 30 min, FP-Rh (1.0 μL, 50 μM in DMSO) was added and the mixture was incubated for another 30 min at 37° C. Reactions were quenched with SDS loading buffer (50 μL-4×) and run on SDS-PAGE.
# FAAH = target: T2, FAAH (Mus musculus, UniProt O08914); assay: In vitro competitive activity-based protein profiling (mouse), FAAH; conditions: for inhibition at 1 µM: mouse proteome, in vitro; for IC50: mouse brain membrane fraction or cell lysates, 30 min preincubation at 37° C, FP-Rh probe
# T2 construct: Proteomes (mouse brain membrane fraction or cell lysates); from tissue; host or cells: mouse brain membrane fraction (or unspecified cell lysates)
# T2 sequence (O08914 1-579): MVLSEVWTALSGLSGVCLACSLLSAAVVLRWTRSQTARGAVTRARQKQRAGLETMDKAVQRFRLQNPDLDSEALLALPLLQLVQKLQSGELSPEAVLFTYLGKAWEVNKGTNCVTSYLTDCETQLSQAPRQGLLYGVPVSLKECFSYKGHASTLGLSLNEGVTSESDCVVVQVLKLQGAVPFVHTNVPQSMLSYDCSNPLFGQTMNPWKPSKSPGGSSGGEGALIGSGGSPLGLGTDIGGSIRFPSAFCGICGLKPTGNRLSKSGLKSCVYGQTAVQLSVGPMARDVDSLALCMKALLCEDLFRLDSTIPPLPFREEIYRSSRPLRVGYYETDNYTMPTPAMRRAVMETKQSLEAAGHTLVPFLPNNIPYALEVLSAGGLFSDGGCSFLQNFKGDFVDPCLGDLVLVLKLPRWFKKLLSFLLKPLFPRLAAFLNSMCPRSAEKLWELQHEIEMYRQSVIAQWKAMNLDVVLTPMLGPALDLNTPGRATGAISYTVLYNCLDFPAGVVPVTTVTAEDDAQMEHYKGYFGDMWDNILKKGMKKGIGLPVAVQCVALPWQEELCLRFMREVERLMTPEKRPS
# Procedure: as §1
# as §2, with “SDS-PAGE. Following gel imaging, serine hydrolase activity was determined by measuring fluorescent intensity of gel bands corresponding to MAGL, ABHD6 and FAAH using ImageJ 1.43u software.” for “SDS-PAGE.”
# ABHD6 = target: T3, ABHD6 (Mus musculus, UniProt Q8R2Y0); assay: In vitro competitive activity-based protein profiling (mouse), ABHD6; conditions: for inhibition at 1 µM: read-out: % Inhibition at 1 μM ABHD6; for IC50: mouse brain membrane fraction or cell lysates, 30 min preincubation at 37° C, FP-Rh probe
# T3 construct: Proteomes (mouse brain membrane fraction or cell lysates); from tissue; host or cells: mouse brain membrane fraction (or unspecified cell lysates)
# T3 sequence (Q8R2Y0 1-336): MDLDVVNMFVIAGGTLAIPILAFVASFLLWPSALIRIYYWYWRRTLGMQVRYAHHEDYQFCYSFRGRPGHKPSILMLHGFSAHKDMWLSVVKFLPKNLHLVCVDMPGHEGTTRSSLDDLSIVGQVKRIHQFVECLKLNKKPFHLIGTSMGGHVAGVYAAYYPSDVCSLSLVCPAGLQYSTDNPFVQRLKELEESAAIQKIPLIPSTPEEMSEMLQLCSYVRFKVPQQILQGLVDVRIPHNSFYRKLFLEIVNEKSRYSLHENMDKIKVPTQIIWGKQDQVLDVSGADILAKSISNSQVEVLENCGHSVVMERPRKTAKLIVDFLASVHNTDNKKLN
# Procedure: as §1, §2
SMILES,"inhibition at 1 µM (MAGL; 1 μM, mouse proteome, in vitro) [%]",IC50 (MAGL) [nM],inhibition at 1 µM (FAAH) [%],IC50 (FAAH) [nM],"inhibition at 1 µM (ABHD6; 1 μM, mouse proteome, in vitro) [%]",IC50 (ABHD6) [nM],inhibition at 1 µM (MAGL) [%],inhibition at 1 µM (ABHD6) [%]
"O=C(O)C1CCN(c2cc(CN3CCN(C(=O)OC(C(F)(F)F)C(F)(F)F)CC3)ccc2C(F)(F)F)CC1 [Example 85, 1-(5-((4-(((1,1,1,3,3,3-hexafluoropropan-2-yl)oxy)carbonyl)piperazin-1-yl)methyl)-2-(trifluoromethyl)phenyl)piperidine-4-carboxylic acid]",25 to 75,100 to 1000,< 25,> 1000,> 75,100 to 1000,,
"CC(=O)NC1CCN(Cc2cccc(CN3CCN(C(=O)OC(C(F)(F)F)C(F)(F)F)CC3)c2C)CC1 [Example 11, 1,1,1,3,3,3-hexafluoropropan-2-yl 4-(3-((4-acetamidopiperidin-1-yl)methyl)-2-methylbenzyl)piperazine-1-carboxylate]",> 75,100 to 1000,< 25,> 1000,25 to 75,100 to 1000,,
"Cc1c(CN2CCN(C(=O)OC(C(F)(F)F)C(F)(F)F)CC2)cccc1CN1CCC(F)(F)CC1 [Example 12, 1,1,1,3,3,3-hexafluoropropan-2-yl 4-(3-((4,4-difluoropiperidin-1-yl)methyl)-2-methylbenzyl)piperazine-1-carboxylate]",> 75,< 100,< 25,> 1000,> 75,100 to 1000,,
"O=C(O)C1CCN(c2cc(Cl)ccc2CN2CCN(C(=O)OC(C(F)(F)F)C(F)(F)F)CC2)CC1 [Example 62, 1-(5-chloro-2-((4-(((1,1,1,3,3,3-hexafluoropropan-2-yl)oxy)carbonyl)piperazin-1-yl)methyl)phenyl)piperidine-4-carboxylic acid]",> 75,100 to 1000,< 25,> 1000,< 25,> 1000,,
"Cc1c(CN2CCN(C(=O)OC(C(F)(F)F)C(F)(F)F)CC2)cccc1CN1CCCC[C@H]1C [Example 19, 1,1,1,3,3,3-hexafluoropropan-2-yl (R)-4-(2-methyl-3-((2-methylpiperidin-1-yl)methyl)benzyl)piperazine-1-carboxylate]",> 75,100 to 1000,< 25,> 1000,> 75,100 to 1000,,
"O=C(OC(C(F)(F)F)C(F)(F)F)N1CCN(Cc2ccc(Cl)cc2N2CC3CN(C4CC4)CC3C2)CC1 (stereo not drawn) [Example 64, 1,1,1,3,3,3-hexafluoropropan-2-yl 4-(4-chloro-2-(5-cyclopropylhexahydropyrrolo[3,4-c]pyrrol-2(1H)-yl)benzyl)piperazine-1-carboxylate]",> 75,100 to 1000,< 25,> 1000,< 25,> 1000,,
"O=C(OC(C(F)(F)F)C(F)(F)F)N1CCN(Cc2ccc(N3CC4CCC(C3)O4)cc2OC(F)(F)F)CC1 [Example 28, 1,1,1,3,3,3-hexafluoropropan-2-yl 4-(4-(8-oxa-3-azabicyclo[3.2.1]octan-3-yl)-2-(trifluoromethoxy)benzyl)piperazine-1-carboxylate]",> 75,100 to 1000,< 25,> 1000,< 25,> 1000,,
"Cc1c(CN2CCCC2)cccc1CN1CCN(C(=O)OC(C(F)(F)F)C(F)(F)F)CC1 [Example 13, 1,1,1,3,3,3-hexafluoropropan-2-yl 4-(2-methyl-3-(pyrrolidin-1-ylmethyl)benzyl)piperazine-1-carboxylate]",> 75,100 to 1000,< 25,> 1000,> 75,100 to 1000,,
"O=C(OC(C(F)(F)F)C(F)(F)F)N1CCN(Cc2c(N3C4CCC3COC4)cccc2C(F)(F)F)CC1 [Example 49, 1,1,1,3,3,3-hexafluoropropan-2-yl 4-(2-(3-oxa-8-azabicyclo[3.2.1]octan-8-yl)-6-(trifluoromethyl)benzyl)piperazine-1-carboxylate]",,,< 25,,,,25 to 75,< 25
"O=C(O)C1CN(c2cc(CN3CCN(C(=O)OC(C(F)(F)F)C(F)(F)F)CC3)cc(C(F)(F)F)c2)CCO1 (stereo not drawn) [Example 92, 4-(3-((4-(((1,1,1,3,3,3-hexafluoropropan-2-yl)oxy)carbonyl)piperazin-1-yl)methyl)-5-(trifluoromethyl)phenyl)morpholine-2-carboxylic acid]",> 75,< 100,< 25,> 1000,< 25,> 1000,,
"Cc1c(CN2CCN(C(=O)OC(C(F)(F)F)C(F)(F)F)CC2)cccc1CN1CCCC[C@@H]1C [Example 20, 1,1,1,3,3,3-hexafluoropropan-2-yl (S)-4-(2-methyl-3-((2-methylpiperidin-1-yl)methyl)benzyl)piperazine-1-carboxylate]",> 75,100 to 1000,< 25,> 1000,> 75,100 to 1000,,
"CN(C)C(=O)C1CCN(c2cc(Cl)ccc2CN2CCN(C(=O)OC(C(F)(F)F)C(F)(F)F)CC2)CC1 [Example 34, 1,1,1,3,3,3-hexafluoropropan-2-yl 4-(4-chloro-2-(4-(dimethylcarbamoyl)piperidin-1-yl)benzyl)piperazine-1-carboxylate]",> 75,100 to 1000,< 25,> 1000,< 25,> 1000,,
"CS(=O)(=O)N[C@H]1CCN(c2cccc(C(F)(F)F)c2CN2CCN(C(=O)OC(C(F)(F)F)C(F)(F)F)CC2)C1 [Example 48, 1,1,1,3,3,3-hexafluoropropan-2-yl (S)-4-(2-(3-(methylsulfonamido)pyrrolidin-1-yl)-6-(trifluoromethyl)benzyl)piperazine-1-carboxylate]",25 to 75,,< 25,,< 25,,,
"O=C(OC(C(F)(F)F)C(F)(F)F)N1CCN(Cc2ccc(CN3CCCCC3)cc2OC(F)(F)F)CC1 [Example 24, 1,1,1,3,3,3-hexafluoropropan-2-yl 4-(4-(piperidin-1-ylmethyl)-2-(trifluoromethoxy)benzyl)piperazine-1-carboxylate]",> 75,100 to 1000,< 25,> 1000,< 25,> 1000,,
"O=C(OC(C(F)(F)F)C(F)(F)F)N1CCN(Cc2c(N3CC4CCC(C3)O4)cccc2C(F)(F)F)CC1 [Example 50, 1,1,1,3,3,3-hexafluoropropan-2-yl 4-(2-(8-oxa-3-azabicyclo[3.2.1]octan-3-yl)-6-(trifluoromethyl)benzyl)piperazine-1-carboxylate]",< 25,,< 25,,< 25,,,
